≈ marks a conversion by molar mass, not a printed value. Structures can show the parent of a compound that is named as a salt.
Key:
[1] = Kinetic solubility assay (CLND), pH 6.8; assay type: physicochemical; settings: aqueous buffer, kinetic from dmso stock; potassium phosphate buffer pH 6.8, 2% DMSO, 24 hours at ambient temperature
[2] = Kpuu assay (in vivo brain-to-plasma unbound partition); settings: brain (unbound) versus plasma (unbound); intravenous infusion 4 to 24 h; unbound brain/plasma ratio; read-out: Brain Kpu, u
[3] = target: MDR1 (Homo sapiens (Human), UniProt P08183); assay: in vitro; settings: MDCK-MDR1
[4] = target: IRAK4 (Homo sapiens (Human), UniProt Q9NWZ3); assay: IRAK4 MSD biochemical assay (2-hour 1 mM ATP); settings: 0.1 nM IRAK4, 1 mM ATP, 2 hour at room temperature
Chain of IRAK4 (Q9NWZ3 whole entry): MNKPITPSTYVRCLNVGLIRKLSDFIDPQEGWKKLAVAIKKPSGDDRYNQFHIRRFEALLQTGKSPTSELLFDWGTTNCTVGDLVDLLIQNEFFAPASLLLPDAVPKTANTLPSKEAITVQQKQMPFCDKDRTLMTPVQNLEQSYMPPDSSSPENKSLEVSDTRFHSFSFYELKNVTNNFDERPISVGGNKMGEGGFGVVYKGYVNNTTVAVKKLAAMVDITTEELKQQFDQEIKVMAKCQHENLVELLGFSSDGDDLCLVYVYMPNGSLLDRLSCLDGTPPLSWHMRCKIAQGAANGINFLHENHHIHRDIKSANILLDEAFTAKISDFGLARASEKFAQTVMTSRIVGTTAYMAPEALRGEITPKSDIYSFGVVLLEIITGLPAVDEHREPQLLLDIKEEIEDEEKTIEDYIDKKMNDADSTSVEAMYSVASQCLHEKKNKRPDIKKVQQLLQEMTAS

Chain of MDR1 (P08183 whole entry): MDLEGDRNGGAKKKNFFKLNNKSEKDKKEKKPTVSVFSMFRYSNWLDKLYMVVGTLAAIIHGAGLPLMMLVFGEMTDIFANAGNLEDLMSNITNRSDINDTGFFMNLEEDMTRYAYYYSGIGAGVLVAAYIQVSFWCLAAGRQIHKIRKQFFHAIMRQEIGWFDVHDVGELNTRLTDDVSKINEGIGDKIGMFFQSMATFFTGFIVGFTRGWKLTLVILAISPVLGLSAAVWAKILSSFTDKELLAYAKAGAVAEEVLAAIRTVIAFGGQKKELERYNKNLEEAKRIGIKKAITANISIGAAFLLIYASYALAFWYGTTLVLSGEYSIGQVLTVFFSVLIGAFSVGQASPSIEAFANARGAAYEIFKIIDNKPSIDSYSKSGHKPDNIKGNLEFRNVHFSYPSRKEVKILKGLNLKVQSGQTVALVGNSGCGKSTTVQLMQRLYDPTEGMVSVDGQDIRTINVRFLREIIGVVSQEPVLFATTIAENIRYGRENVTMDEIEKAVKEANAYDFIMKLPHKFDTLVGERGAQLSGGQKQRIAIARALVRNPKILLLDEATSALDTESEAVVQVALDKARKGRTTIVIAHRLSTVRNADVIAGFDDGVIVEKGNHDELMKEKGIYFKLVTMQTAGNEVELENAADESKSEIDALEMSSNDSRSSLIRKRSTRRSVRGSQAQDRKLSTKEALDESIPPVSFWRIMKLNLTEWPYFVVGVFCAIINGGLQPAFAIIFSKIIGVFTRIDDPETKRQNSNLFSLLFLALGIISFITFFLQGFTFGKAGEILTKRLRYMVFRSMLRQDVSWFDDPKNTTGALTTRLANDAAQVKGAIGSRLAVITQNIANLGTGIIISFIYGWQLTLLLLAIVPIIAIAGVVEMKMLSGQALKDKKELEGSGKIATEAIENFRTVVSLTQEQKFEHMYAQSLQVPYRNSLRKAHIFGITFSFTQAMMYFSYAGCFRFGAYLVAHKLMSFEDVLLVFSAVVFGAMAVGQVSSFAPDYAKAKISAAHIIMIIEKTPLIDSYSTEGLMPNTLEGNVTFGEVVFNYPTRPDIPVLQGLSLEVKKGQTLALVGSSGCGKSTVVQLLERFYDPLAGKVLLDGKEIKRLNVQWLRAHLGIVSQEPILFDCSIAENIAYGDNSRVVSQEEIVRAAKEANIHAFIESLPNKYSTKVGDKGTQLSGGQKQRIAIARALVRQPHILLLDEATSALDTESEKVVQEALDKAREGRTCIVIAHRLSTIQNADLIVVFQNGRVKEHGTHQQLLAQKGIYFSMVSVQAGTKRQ

Structure (SMILES) | solubility kinetic at 24 h [1] [µg/mL] | Kpuu (unbound brain-to-plasma partition coefficient) [2] | efflux ratio at 120 min, 1 μM [3] | IC50 [4] [nM]
CC(C)Oc1cc2nc([C@@]34CC[C@@](C)(C3)OC4)cn2cc1C(=O)Nc1cccn(C)c1=O (single isomer, unassigned) [Comparator 3D, reference compound] | 49.3 (≈ 113 µM) | 1.1 | 3.1 | 
CC(C)Oc1nc2nc([C@@]34CC[C@@](C)(C3)OC4)cn2cc1C(=O)Nc1cccc(C(F)F)n1 (single isomer, unassigned) [Comparator 4A, reference compound] | 2 (≈ 4.37 µM) | 0.4 | 0.7 | 
CC(C)Oc1nc2nc([C@@]34CC[C@@](C)(C3)OC4)cn2cc1C(=O)Nc1cccn(C2CC2)c1=O (single isomer, unassigned) [Example 12] | 22.3 (≈ 48.1 µM) | 0.33 |  | 
CC(C)Oc1nc2nc([C@@]34CC[C@@](CF)(C3)OC4)cn2cc1C(=O)Nc1cccn(C2CC2)c1=O (single isomer, unassigned) [Example 46] | 9 (≈ 18.7 µM) | 1.81 |  | 
COC[C@]12CC[C@](c3cn4cc(C(=O)Nc5cccn([C@H]6C[C@H]6F)c5=O)c(OC(C)C)nc4n3)(CO1)C2 (single isomer, unassigned) [Example 130] | 63.6 (≈ 124 µM) | 0.08 |  | 
COC[C@@]12CC[C@@](c3cn4cc(C(=O)Nc5cccn([C@H]6C[C@H]6F)c5=O)c(OC(C)C)nc4n3)(CO1)C2 (single isomer, unassigned) [Example 132] | 70.5 (≈ 138 µM) | 0.14 |  | 
CC(C)Oc1cc2nc(C34COC(C)(C3)C4)cn2cc1C(=O)Nc1cccc(C(F)F)n1 [Comparator 1A, N-(6-(difluoromethyl)pyridin-2-yl)-7-isopropoxy-2-(1-methyl-2-oxabicyclo[2.1.1]hexan-4-yl)imidazo[1,2-a]pyridine-6-carboxamide, reference compound] | 2.1 (≈ 4.75 µM) | 0.4 | 0.9 | 
Cc1cnc2c(NC(=O)c3cn4cc(C56COC(C)(C5)C6)nc4nc3OC(C)C)cnn2c1 [Comparator 2B, 7-isopropoxy-2-(1-methyl-2-oxabicyclo[2.1.1]hexan-4-yl)-N-(6-methylpyrazolo[1,5-a]pyrimidin-3-yl)imidazo[1,2-a]pyrimidine-6-carboxamide, reference compound] |  | 0.3 |  | 
CC(C)Oc1nc2nc(C34COC(CF)(C3)C4)cn2cc1C(=O)Nc1cccn(C2CC2)c1=O [Example 10, N-(1-cyclopropyl-2-oxo-1,2-dihydropyridin-3-yl)-2-(1-(fluoromethyl)-2-oxabicyclo[2.1.1]hexan-4-yl)-7-isopropoxyimidazo[1,2-a]pyrimidine-6-carboxamide] | 79.3 (≈ 170 µM) | 0.22 |  | 
CC(C)Oc1nc2nc(C34COC(C)(C3)C4)cn2cc1C(=O)Nc1cccn(C2CC2)c1=O [Example 18, N-(1-cyclopropyl-2-oxo-1,2-dihydropyridin-3-yl)-7-isopropoxy-2-(1-methyl-2-oxabicyclo[2.1.1]hexan-4-yl)imidazo[1,2-a]pyrimidine-6-carboxamide] |  | 0.7 |  | 
O=C(Nc1cccn(C2CC2)c1=O)c1cn2cc(C34COC(CF)(C3)C4)nc2nc1OC1CCC1 [Example 33, 7-cyclobutoxy-N-(1-cyclopropyl-2-oxo-1,2-dihydropyridin-3-yl)-2-(1-(fluoromethyl)-2-oxabicyclo[2.1.1]hexan-4-yl)imidazo[1,2-a]pyrimidine-6-carboxamide] | 10.1 (≈ 21.1 µM) | 0.45 |  | 
COCC12CC(c3cn4cc(C(=O)Nc5cccn([C@H]6C[C@H]6F)c5=O)c(OC5CCC5)nc4n3)(CO1)C2 [Example 128, 7-cyclobutoxy-N-(1-((1S,2R)-2-fluorocyclopropyl)-2-oxo-1,2-dihydropyridin-3-yl)-2-(1-(methoxymethyl)-2-oxabicyclo[2.1.1]hexan-4-yl)imidazo[1,2-a]pyrimidine-6-carboxamide] | 72.5 (≈ 142 µM) |  | 20.8 | 0.3
CC(C)Oc1cc2nc(C34COC(C)(C3)C4)cn2cc1C(=O)Nc1cccn([C@H]2C[C@H]2C)c1=O [Example 134, 7-isopropoxy-2-(1-methyl-2-oxabicyclo[2.1.1]hexan-4-yl)-N-(1-((1S,2R)-2-methylcyclopropyl)-2-oxo-1,2-dihydropyridin-3-yl)imidazo[1,2-a]pyridine-6-carboxamide] | 38.6 (≈ 83.5 µM) |  | 4.4 | 0.5
CC(C)Oc1nc2nc(C34COC(C)(C3)C4)cn2cc1C(=O)Nc1cccn([C@H]2C[C@H]2C)c1=O [Example 136, 7-isopropoxy-2-(1-methyl-2-oxabicyclo[2.1.1]hexan-4-yl)-N-(1-((1S,2R)-2-methylcyclopropyl)-2-oxo-1,2-dihydropyridin-3-yl)imidazo[1,2-a]pyrimidine-6-carboxamide] |  | 0.4 |  | 
C[C@@H]1C[C@@H]1n1cccc(NC(=O)c2cn3cc(C45COC(C)(C4)C5)nc3nc2OC2CCC2)c1=O [Example 188, 7-cyclobutoxy-2-(1-methyl-2-oxabicyclo[2.1.1]hexan-4-yl)-N-(1-((1S,2R)-2-methylcyclopropyl)-2-oxo-1,2-dihydropyridin-3-yl)imidazo[1,2-a]pyrimidine-6-carboxamide trifluoroacetate] | 49.7 |  | 4.4 | 0.8
C[C@@H]1C[C@@H]1n1cccc(NC(=O)c2cn3cc(C45COC(C)(C4)C5)nc3cc2OC2CCC2)c1=O [Example 190, 7-cyclobutoxy-2-(1-methyl-2-oxabicyclo[2.1.1]hexan-4-yl)-N-(1-((1S,2R)-2-methylcyclopropyl)-2-oxo-1,2-dihydropyridin-3-yl)imidazo[1,2-a]pyridine-6-carboxamide trifluoroacetate] | 54.2 |  | 4.1 | 0.9

Continued, values first:

solubility kinetic at 24 h [1] [µg/mL] | Kpuu (unbound brain-to-plasma partition coefficient) [2] | efflux ratio at 120 min, 1 μM [3] | IC50 [4] [nM] | Structure (SMILES)
35.8 (≈ 76.7 µM) | 0.36 |  |  | CC(C)Oc1cc2nc(C34COC(C)(C3)C4)cn2cc1C(=O)Nc1cccn([C@H]2C[C@@H]2F)c1=O (single isomer, unassigned) [Example 155]
38.4 (≈ 83 µM) |  | 3 | 0.5 | CC(C)Oc1cc2nc(C34COC(C)(C3)C4)cn2cc1C(=O)Nc1cccn([C@@H]2C[C@H]2C)c1=O [Example 139, 7-isopropoxy-2-(1-methyl-2-oxabicyclo[2.1.1]hexan-4-yl)-N-(1-((1R,2R)-2-methylcyclopropyl)-2-oxo-1,2-dihydropyridin-3-yl)imidazo[1,2-a]pyridine-6-carboxamide]
29.7 (≈ 61.8 µM) |  | 1.7 | 0.9 | CC(C)Oc1c(C(=O)Nc2cccn([C@H]3C[C@@H]3C)c2=O)cn2cc(C34COC(C)(C3)C4)nc2c1F [Example 146, 8-fluoro-7-isopropoxy-2-(1-methyl-2-oxabicyclo[2.1.1]hexan-4-yl)-N-(1-((1S,2S)-2-methylcyclopropyl)-2-oxo-1,2-dihydropyridin-3-yl)imidazo[1,2-a]pyridine-6-carboxamide]
 | 0.28 |  |  | CC(C)Oc1nc2nc(C34COC(C)(C3)C4)cn2cc1C(=O)Nc1cccn([C@H]2C[C@H]2F)c1=O [Example 159, N-(1-((1S,2R)-2-fluorocyclopropyl)-2-oxo-1,2-dihydropyridin-3-yl)-7-isopropoxy-2-(1-methyl-2-oxabicyclo[2.1.1]hexan-4-yl)imidazo[1,2-a]pyrimidine-6-carboxamide]
47.9 (≈ 99.7 µM) |  | 9.8 | 0.2 | CC(C)Oc1cc2nc([C@]34CC[C@](C)(C3)OC4)cn2cc1C(=O)Nc1cccn([C@H]2C[C@H]2F)c1=O [Example 171, N-(1-((1S,2R)-2-fluorocyclopropyl)-2-oxo-1,2-dihydropyridin-3-yl)-7-isopropoxy-2-((1R,4S)-1-methyl-2-oxabicyclo[2.2.1]heptan-4-yl)imidazo[1,2-a]pyridine-6-carboxamide]
43 (≈ 92.6 µM) |  | 8.9 | 0.2 | CC12CC(c3cn4cc(C(=O)Nc5cccn([C@H]6C[C@H]6F)c5=O)c(OC5CC5)cc4n3)(CO1)C2 [Example 175, 7-cyclopropoxy-N-(1-((1S,2R)-2-fluorocyclopropyl)-2-oxo-1,2-dihydropyridin-3-yl)-2-(1-methyl-2-oxabicyclo[2.1.1]hexan-4-yl)imidazo[1,2-a]pyridine-6-carboxamide]
31.8 |  | 3.9 | 0.2 | CC(C)Oc1cc2nc([C@@]34CC[C@@](C)(C3)OC4)cn2cc1C(=O)Nc1cccn([C@H]2C[C@H]2C)c1=O [Example 182, 7-isopropoxy-2-((1S,4R)-1-methyl-2-oxabicyclo[2.2.1]heptan-4-yl)-N-(1-((1S,2R)-2-methylcyclopropyl)-2-oxo-1,2-dihydropyridin-3-yl)imidazo[1,2-a]pyridine-6-carboxamide trifluoroacetate]
73.4 (≈ 146 µM) |  | 19.2 | 0.2 | C[C@H](Oc1cc2nc(C34COC(C)(C3)C4)cn2cc1C(=O)Nc1cccn(C2C[C@H]2F)c1=O)C(F)F (stereo partly drawn) [Example 184, 7-(((S)-1,1-difluoropropan-2-yl)oxy)-N-(1-((1S,2R)-2-fluorocyclopropyl)-2-oxo-1,2-dihydropyridin-3-yl)-2-(1-methyl-2-oxabicyclo[2.1.1]hexan-4-yl)imidazo[1,2-a]pyridine-6-carboxamide]
73.2 (≈ 146 µM) |  | 21.8 | 0.1 | C[C@@H](Oc1cc2nc(C34COC(C)(C3)C4)cn2cc1C(=O)Nc1cccn(C2C[C@H]2F)c1=O)C(F)F (stereo partly drawn) [Example 185]
